# From patent US10173982B2, “Picolinamides as fungicides” (Dow AgroSciences LLC, priority 2016, dated 2019)
# Like-named read-outs stand apart in the source and are kept apart here.
# Assays:
# Type in all cases: in vivo
# Zymoseptoria tritici = experiment: Fungicidal activity: leaf blotch of wheat (SEPTTR), percent disease control on wheat seedlings; details: Zymoseptoria tritici; for pest or weed control at 121.5 g/ha: LV (low volume) activity at 121.5 g/H; for pest or weed control at 100 ppm: HV (high volume) activity at 100 ppm
# Description: Technical grades of materials were dissolved in acetone, which were then mixed with nine volumes of water containing 110 ppm Triton X-100. The fungicide solutions were applied onto wheat seedlings using an automated booth sprayer to run-off. All sprayed plants were allowed to air dry prior to further handling. All fungicides were evaluated using the aforementioned method for their activity vs. all target diseases, unless stated otherwise. Wheat leaf blotch and brown rust activity were also evaluated using track spray applications, in which case the fungicides were formulated as EC formulations, containing 0.1% Trycol 5941 in the spray solutions. Wheat plants (variety Yuma) were grown from seed in a greenhouse in 50% mineral soil/50% soil-less Metro mix until the first leaf was fully emerged, with 7-10 seedlings per pot. These plants were inoculated with an aqueous spore suspension of Zymoseptoria tritici either prior to or after fungicide treatments. After inoculation the plants were kept in 100% relative humidity (one day in a dark dew chamber followed by two to three days in a lighted dew chamber at 20° C.) to permit spores to germinate and infect the leaf. The plants were then transferred to a greenhouse set at 20° C. for disease to develop. When disease symptoms were fully expressed on the 1st leaves of untreated plants, infection levels were assessed on a scale of 0 to 100 percent disease severity. Percent disease control was calculated using the ratio of disease severity on treated plants relative to untreated plants.
# Puccinia triticina = experiment: Fungicidal activity: wheat brown rust (PUCCRT), percent disease control on wheat seedlings; details: Puccinia triticina; for pest or weed control at 121.5 g/ha: LV (low volume) activity at 121.5 g/H; for pest or weed control at 100 ppm: HV (high volume) activity at 100 ppm
# Description: Technical grades of materials were dissolved in acetone, which were then mixed with nine volumes of water containing 110 ppm Triton X-100. The fungicide solutions were applied onto wheat seedlings using an automated booth sprayer to run-off. All sprayed plants were allowed to air dry prior to further handling. All fungicides were evaluated using the aforementioned method for their activity vs. all target diseases, unless stated otherwise. Wheat leaf blotch and brown rust activity were also evaluated using track spray applications, in which case the fungicides were formulated as EC formulations, containing 0.1% Trycol 5941 in the spray solutions. Wheat plants (variety Yuma) were grown from seed in a greenhouse in 50% mineral soil/50% soil-less Metro mix until the first leaf was fully emerged, with 7-10 seedlings per pot. These plants were inoculated with an aqueous spore suspension of Puccinia triticina either prior to or after fungicide treatments. After inoculation the plants were kept in a dark dew room at 22° C. with 100% relative humidity overnight to permit spores to germinate and infect the leaf. The plants were then transferred to a greenhouse set at 24° C. for disease to develop. Fungicide formulation, application and disease assessment followed the procedures as described in the Example A. Results of the evaluations are shown below in Table 4.
# Phakopsora pachyrhizi = experiment: Fungicidal activity: Asian soybean rust (PHAKPA), disease control on soybean seedlings; details: High volume at 25 ppm
# Description: Technical grades of materials were dissolved in acetone, which were then mixed with nine volumes of water containing 0.011% Tween 20. The fungicide solutions were applied onto soybean seedlings using an automated booth sprayer to run-off. All sprayed plants were allowed to air dry prior to further handling.
# Soybean plants (variety Williams 82) were grown in soil-less Metro mix, with one plant per pot. Two weeks old seedlings were used for testing. Plants were inoculated either 3 days prior to or 1 day after fungicide treatments. Plants were incubated for 24 h in a dark dew room at 22° C. and 100% relative humidity then transferred to a growth room at 23° C. for disease to develop. Disease severity was assessed on the sprayed leaves.
# [1] = 24 h, 1 Day Protectant, read-out: SEPTTR 1DP disease control rating
# [2] = 72 h, 3 Day Curative, read-out: SEPTTR 3DC disease control rating
# [3] = 24 h, 1 Day Protectant, read-out: PUCCRT 1DP disease control rating
# [4] = 72 h, 3 Day Curative, read-out: PUCCRT 3DC disease control rating
# [5] = 24 h, 1 Day Protectant, read-out: PHAKPA 1DP disease control rating
# [6] = 72 h, 3 Day Curative, read-out: PHAKPA 3DC disease control rating
SMILES,pest or weed control at 121.5 g/ha (Zymoseptoria tritici; [1]) [%],pest or weed control at 121.5 g/ha (Zymoseptoria tritici; [2]) [%],pest or weed control at 121.5 g/ha (Puccinia triticina; [3]) [%],pest or weed control at 121.5 g/ha (Puccinia triticina; [4]) [%],pest or weed control at 25 ppm (Phakopsora pachyrhizi; [5]) [%],pest or weed control at 25 ppm (Phakopsora pachyrhizi; [6]) [%],pest or weed control at 100 ppm (Zymoseptoria tritici; [1]) [%],pest or weed control at 100 ppm (Zymoseptoria tritici; [2]) [%],pest or weed control at 100 ppm (Puccinia triticina; [3]) [%],pest or weed control at 100 ppm (Puccinia triticina; [4]) [%]
COc1ccnc(C(=O)N[C@@H](C)C(=O)O[C@@H](C)[C@H](Sc2ccccc2)c2ccc(F)cc2C)c1OC(C)=O [Compound 78],> 80,> 80,≤ 80,≤ 0,≤ 80,≤ 0,–,–,–,–
COc1ccnc(C(=O)N[C@@H](C)C(=O)O[C@@H](C)[C@H](SCc2ccccc2)c2ccccc2)c1OC(C)=O [Compound 68],> 80,≤ 80,> 80,> 80,> 80,≤ 80,–,–,–,–
COc1ccnc(C(=O)N[C@@H](C)C(=O)O[C@@H](C)[C@H](Sc2ccccc2)c2ccccc2)c1OC(C)=O [Compound 82],≤ 80,≤ 80,> 80,≤ 80,≤ 80,≤ 80,–,–,–,–
COc1ccnc(C(=O)N[C@@H](C)C(=O)O[C@@H](C)[C@@H](c2ccccc2)S(=O)(=O)c2ccc(F)cc2)c1OC(C)=O [Compound 64],≤ 80,≤ 80,≤ 80,≤ 0,≤ 0,≤ 80,–,–,–,–
COc1ccnc(C(=O)N[C@@H](C)C(=O)O[C@@H](C)[C@@H](c2ccccc2)[S+]([O-])c2ccc(F)cc2)c1OC(C)=O (stereo partly shown) [Compound 62],≤ 80,≤ 80,≤ 0,≤ 0,≤ 0,≤ 0,–,–,–,–
COc1ccnc(C(=O)N[C@@H](C)C(=O)O[C@@H](C)[C@H](Sc2ccc(C)cc2)c2ccccc2)c1OC(C)=O [Compound 66],> 80,≤ 80,≤ 80,≤ 80,≤ 80,≤ 80,–,–,–,–
COc1ccnc(C(=O)N[C@@H](C)C(=O)O[C@@H](C)[C@H](Sc2ccc(C(F)(F)F)cn2)c2ccccc2)c1OC(C)=O [Compound 71],≤ 80,≤ 80,≤ 0,≤ 80,≤ 80,≤ 80,–,–,–,–
COc1ccnc(C(=O)N[C@@H](C)C(=O)O[C@@H](C)[C@H](Sc2ccccc2)c2ccccc2)c1OC(=O)C(C)C [Compound 81],≤ 80,≤ 80,≤ 80,≤ 80,≤ 80,≤ 80,–,–,–,–
COc1ccnc(C(=S)N[C@@H](C)C(=O)O[C@@H](C)[C@H](Sc2ccccc2)c2ccc(F)cc2)c1OC(C)=O [Compound 85],≤ 80,≤ 0,≤ 80,≤ 0,≤ 80,≤ 0,–,–,–,–
COc1cc(F)ccc1[C@@H](Sc1ccccc1)[C@H](C)OC(=O)[C@H](C)NC(=O)c1nccc(OC)c1OC(C)=O [Compound 84],> 80,≤ 0,≤ 80,≤ 80,≤ 80,≤ 0,–,–,–,–
COc1ccnc(C(=O)N[C@@H](C)C(=O)O[C@@H](C)[C@H](Sc2ccc(F)cc2C)c2ccc(F)cc2C)c1OC(C)=O [Compound 76],> 80,> 80,≤ 80,≤ 0,≤ 80,≤ 80,–,–,–,–
COc1ccnc(C(=O)N[C@@H](C)C(=O)O[C@@H](C)[C@H](Sc2ccccc2)c2ccc(C)cc2)c1OC(C)=O [Compound 77],> 80,≤ 80,> 80,≤ 80,≤ 80,≤ 80,–,–,–,–
COc1ccnc(C(=O)N[C@@H](C)C(=O)O[C@@H](C)[C@H](Sc2ccccc2)c2ccccc2)c1OCOC(C)=O [Compound 80],≤ 80,≤ 80,> 80,≤ 80,≤ 80,≤ 80,–,–,–,–
COc1ccnc(C(=O)N[C@@H](C)C(=O)O[C@@H](C)[C@H](Sc2ccc(C)cc2C)c2ccccc2)c1OC(C)=O [Compound 67],> 80,> 80,> 80,≤ 80,≤ 80,≤ 0,–,–,–,–
COc1ccnc(C(=O)N[C@@H](C)C(=O)O[C@@H](C)[C@H](SC(C)C)c2ccccc2)c1OC(C)=O [Compound 70],≤ 80,> 80,> 80,≤ 80,> 80,≤ 80,–,–,–,–
COc1ccnc(C(=O)N[C@@H](C)C(=O)O[C@@H](C)[C@H](Sc2ccc(C(F)(F)F)cn2)c2ccccc2)c1O [Compound 52],–,–,–,–,–,–,≤ 0,≤ 80,≤ 80,≤ 80
COc1ccnc(C(=O)N[C@@H](C)C(=O)O[C@@H](C)[C@H](Sc2cccc(Cl)c2)c2ccccc2)c1OC(C)=O [Compound 65],> 80,≤ 0,> 80,≤ 80,≤ 80,≤ 80,–,–,–,–
COc1ccnc(C(=O)N[C@@H](C)C(=O)O[C@@H](C)[C@H](SCC(C)C)c2ccccc2)c1OC(C)=O [Compound 69],≤ 80,≤ 0,> 80,≤ 80,> 80,≤ 80,–,–,–,–
COc1ccnc(C(=O)N[C@@H](C)C(=O)O[C@@H](C)[C@H](Sc2ccccc2)c2ccccc2)c1OCOC(=O)C(C)C [Compound 79],> 80,> 80,> 80,≤ 80,≤ 80,≤ 80,–,–,–,–
